As usually defined, the IC50 is the concentration at which inhibition is half-maximal.

The values below come from US20140107100A1, “Benzoxazepines as Inhibitors of PI3K/mTOR and Methods of Their Use and Manufacture” (EXELIXIS, INC., priority 2010, published 2014).

The target of the experiment is mTOR/GbL/Raptor (mTORC1) (Homo sapiens, UniProt P42345). The experiment can be described thus: mTOR/GbL/Raptor (mTORC1) ELISA assay, phosphorylation of 4E-BP1. The following applies: 0.2 nM mTORC1, 40 uM ATP, 50 nM NHis-tagged 4E-BP1, 120 minutes; read-out: IC50 in this assay (mTORC1 ELISA). Format: biochemical. As to the method: The measurement of mTORC1 enzyme activity was performed in an ELISA assay format following the phosphorylation of 4E-BP1 protein. All experiments were performed in the 384-well format. Generally, 0.5 μL DMSO containing varying concentrations of the test Compound was mixed with 15 μL enzyme solution. Kinase reactions were initiated with the addition of 15 μL of substrates-containing solution. The assay conditions were-as follows; 0.2 nM mTORC1, 40 uM ATPand 50 nM NHis-tagged4E-BP1 in20 mM Hepes, pH 7.2, 1 mM DTT, 50 mMNaC1, 10 mM MnC12, 0.02 mg/mL BSA, 0.01% CHAPS, 50 mM β-glycerophosphate. Following an incubation of 120 minutes at anibient temperature, 20 μL of the reaction volume was transferred to a Ni-Chelate-coated 384-well plate. The binding step of the 4E-BP1 protein proceeded for 60 minutes, followed by washing 4 times each with 50 uL of Tris-buffered saline solution (TBS). Anti-phospho-4E-BPl rabbit-IgG ([…]. 1:5000) in 5% BSA-TBST (0.2% Tween-20 in TBS) was added and further incubated for 60 minutes. Incubation with a secondary HRP-tagged anti-IgG was similarly performed after washing off the primary antibody (4 washes of 50 μL). Following the final wash step with TBST, 20 μL of SuperSignal ELISA Femto (Pierce Biotechnology) was added and the luminescence measured using an En Vision plate reader.
(In general: ELISA stands for enzyme-linked immunosorbent assay.)
With `Cc1cc(-c2ccc(N)nc2)cc2c1OCCN(c1nc(N)nc(C)c1C(C)C)C2` [Compound 24, 4-[7-(6-aminopyridin-3-yl)-9-methyl-2,3-dihydro-1,4-benzoxazepin-4(5H)-yl]-6-methyl-5-(1-methylethyl)pyrimidin-2-amine], the IC50 was in the range of 100 to 500 nM.

In the case of `CNC(=O)c1sc(N2CCOc3c(C)cc(-c4cnc(Cl)c(NS(C)(=O)=O)c4)cc3C2)nc1C(C)C` [Compound 22, 2-[7-{6-chloro-5-[(methylsulfonyl)amino]pyridin-3-yl}-9-methyl-2,3-dihydro-1,4-benzoxazepin-4(5H)-yl]-N-methyl-4-(1-methylethyl)-1,3-thiazole-5-carboxamide], the IC50 is at most 100 nM.

For the compound `Cc1cc(-c2cnc3sc(N)nc3c2)cc2c1OCCN(c1nc(N)nc(C)c1-c1cccc(F)c1)C2` [Compound 49, 6-{4-[2-amino-5-(3-fluorophenyl)-6-methylpyrimidin-4-yl]-9-methyl-2,3,4,5-tetrahydro-1,4-benzoxazepin-7-yl}[1,3]thiazolo[5,4-b]pyridin-2-amine], the IC50 was at most 100 nM.

For `CCc1c(Cl)nc(CN(C)C)nc1N1CCOc2c(C)cc(-c3cnc4sc(N)nc4c3)cc2C1` [Compound 61, 6-(4-{6-chloro-2-[(dimethylamino)methyl]-5-ethylpyrimidin-4-yl}-9-methyl-2,3,4,5-tetrahydro-1,4-benzoxazepin-7-yl)[1,3]thiazolo[5,4-b]pyridin-2-amine], the IC50 was at most 100 nM.

On to `Cc1cc(-c2cnc3nc[nH]c3c2)cc2c1OCCN(c1nc(CNCC(F)F)nc(C)c1C(C)C)C2` [Compound 165, 2,2-difluoro-N-({4-[7-(1H-imidazo[4,5-b]pyridin-6-yl)-9-methyl-2,3-dihydro-1,4-benzoxazepin-4(5H)-yl]-6-methyl-5-(1-methylethyl)pyrimidin-2-yl}methyl)ethanamine], for which the IC50 is at most 100 nM.

As to `CNc1ncnc(N2CCOc3c(C)cc(-c4cnc5sc(N)nc5c4)cc3C2)c1[N+](=O)[O-]` [Compound 148, 6-{9-methyl-4-[6-(methylamino)-5-nitropyrimidin-4-yl]-2,3,4,5-tetrahydro-1,4-benzoxazepin-7-yl}[1,3]thiazolo[5,4-b]pyridin-2-amine], the IC50 lay in the range of 100 to 500 nM.

With `CCCc1c(C)nc(N)nc1N1CCOc2c(C)cc(-c3cnc4sc(N)nc4c3)cc2C1` [Compound 41, 6-[4-(2-amino-6-methyl-5-propylpyrimidin-4-yl)-9-methyl-2,3,4,5-tetrahydro-1,4-benzoxazepin-7-yl][1,3]thiazolo[5,4-b]pyridin-2-amine], the IC50 was at most 100 nM.

For the compound `Cc1cc(-c2cnc(N)c(S(N)(=O)=O)c2)cc2c1OCCN(c1nc(N)nc(C)c1C(C)C)C2` [Compound 5, 2-amino-5-{4-[2-amino-6-methyl-5-(1-methylethyl)pyrimidin-4-yl]-9-methyl-2,3,4,5-tetrahydro-1,4-benzoxazepin-7-yl}pyridine-3-sulfonamide], the IC50 is at most 100 nM.

Take `Cc1cc(-c2cnc3sc(N)nc3c2)cc2c1OCCN(c1nc(C3CC3)nc(C)c1C(C)C)C2` [Compound 150, 6-{4-[2-cyclopropyl-6-methyl-5-(1-methylethyl)pyrimidin-4-yl]-9-methyl-2,3,4,5-tetrahydro-1,4-benzoxazepin-7-yl}[1,3]thiazolo[5,4-b]pyridin-2-amine]: the concentration for half-maximal inhibition (IC50) was at most 100 nM.

As to `COCCc1nc(C)c(C(C)C)c(N2CCOc3c(C)cc(-c4cnc5sc(N)nc5c4)cc3C2)n1` [Compound 155, 6-(9-methyl-4-{6-methyl-5-(1-methylethyl)-2-[2-(methyloxy)ethyl]pyrimidin-4-yl}-2,3,4,5-tetrahydro-1,4-benzoxazepin-7-yl)[1,3]thiazolo[5,4-b]pyridin-2-amine], the half-maximal inhibitory concentration (IC50) was at most 100 nM.

In the case of `CCc1nc(N)nc(N2CCOc3c(C)cc(-c4cnc5sc(N)nc5c4)cc3C2)c1C(C)C` [Compound 56, 6-{4-[2-amino-6-ethyl-5-(1-methylethyl)pyrimidin-4-yl]-9-methyl-2,3,4,5-tetrahydro-1,4-benzoxazepin-7-yl}[1,3]thiazolo[5,4-b]pyridin-2-amine], the IC50 was at most 100 nM.

Regarding `Cc1cc(-c2cnc3sc(N)nc3c2)cc2c1OCCN(c1ncnc3c1CC[C@H](C)C3)C2` [Compound 30, 6-{9-methyl-4-[(7S)-7-methyl-5,6,7,8-tetrahydroquinazolin-4-yl]-2,3,4,5-tetrahydro-1,4-benzoxazepin-7-yl}[1,3]thiazolo[5,4-b]pyridin-2-amine], the IC50 is at most 100 nM.

For the compound `Cc1nc(C)c(C(C)C)c(N2CCOc3c(C)cc(-c4nnc(N)s4)cc3C2)n1` [Compound 172, 5-{4-[2,6-dimethyl-5-(1-methylethyl)pyrimidin-4-yl]-9-methyl-2,3,4,5-tetrahydro-1,4-benzoxazepin-7-yl}-1,3,4-thiadiazol-2-amine], the IC50 is at most 100 nM.

Regarding `Cc1cc(-c2cnc(N)nc2)cc2c1OCCN(c1nc(N)nc(C)c1C(C)C)C2` [Compound 81, 4-[7-(2-aminopyrimidin-5-yl)-9-methyl-2,3-dihydro-1,4-benzoxazepin-4(5H)-yl]-6-methyl-5-(1-methylethyl)pyrimidin-2-amine], the IC50 is 100 to 500 nM.

With `Cc1cc(-c2cnc3sc(N)nc3c2)cc2c1OCCN(c1nc(N)nc(C)c1C(C)C)C2` [Compound 3, 6-{4-[2-amino-6-methyl-5-(1-methylethyl)pyrimidin-4-yl]-9-methyl-2,3,4,5-tetrahydro-1,4-benzoxazepin-7-yl}[1,3]thiazolo[5,4-b]pyridin-2-amine], the IC50 was at most 100 nM.

In the case of `Cc1cc(-c2cnc3sc(N)nc3c2)cc2c1OCCN(c1nc(CNC3CC3)nc(C)c1C(C)C)C2` [Compound 121, 6-(4-{2-[(cyclopropylamino)methyl]-6-methyl-5-(1-methylethyl)pyrimidin-4-yl}-9-methyl-2,3,4,5-tetrahydro-1,4-benzoxazepin-7-yl)[1,3]thiazolo[5,4-b]pyridin-2-amine], the IC50 is at most 100 nM.

As to `C=CCc1c(C)nc(N)nc1N1CCOc2c(C)cc(-c3cnc4sc(N)nc4c3)cc2C1` [Compound 51, 6-{4-(2-amino-6-methyl-5-prop-2-en-1-ylpyrimidin-4-yl)-9-methyl-2,3,4,5-tetrahydro-1,4-benzoxazepin-7-yl][1,3]thiazolo[5,4-b]pyridin-2-amine], the IC50 is at most 100 nM.

As for `Cc1ncc(C(C)C)c(N2CCOc3c(C)cc(-c4nnc(N)s4)cc3C2)n1` [Compound 175, 5-{9-methyl-4-[2-methyl-5-(1-methylethyl)pyrimidin-4-yl]-2,3,4,5-tetrahydro-1,4-benzoxazepin-7-yl}-1,3,4-thiadiazol-2-amine], the IC50 was at most 100 nM.

As to `Cc1cc(-c2cnc3sc(N)nc3c2)cc2c1OCCN(c1nc([S+](C)[O-])nc(C)c1C(C)C)C2` (stereo not shown) [Compound 99, 6-{9-methyl-4-[6-methyl-5-(1-methylethyl)-2-(methylsulfinyl)pyrimidin-4-yl]-2,3,4,5-tetrahydro-1,4-benzoxazepin-7-yl}[1,3]thiazolo[5,4-b]pyridin-2-amine], the IC50 is at most 100 nM.

Consider `C#CCc1c(C)nc(C)nc1N1CCOc2c(C)cc(-c3cnc4sc(N)nc4c3)cc2C1` [Compound 138, 6-[4-(2,6-dimethyl-5-prop-2-yn-1-ylpyrimidin-4-yl)-9-methyl-2,3,4,5-tetrahydro-1,4-benzoxazepin-7-yl][1,3]thiazolo[5,4-b]pyridin-2-amine], for which the IC50 was at most 100 nM.

Take `Cc1cc(-c2cnc3sc(N)nc3c2)cc2c1OCCN(c1nc(C3CCCN3C)nc(C)c1C(C)C)C2` (stereo not shown) [Compound 149, 6-{9-methyl-4-[6-methyl-5-(1-methylethyl)-2-(1-methylpyrrolidin-2-yl)pyrimidin-4-yl]-2,3,4,5-tetrahydro-1,4-benzoxazepin-7-yl}[1,3]thiazolo[5,4-b]pyridin-2-amine]: the IC50 was at most 100 nM.

In the case of `Cc1cc(-c2cncc(NS(C)(=O)=O)c2)cc2c1OCCN(c1nc(N)nc(C)c1C(C)C)C2` [Compound 18, N-(5-{4-[2-amino-6-methyl-5-(1-methylethyl)pyrimidin-4-yl]-9-methyl-2,3,4,5-tetrahydro-1,4-benzoxazepin-7-yl}pyridin-3-yl)methanesulfonamide], the IC50 lay within 100 to 500 nM.

In the case of `Cc1cc(-c2cnc(Cl)c(NS(C)(=O)=O)c2)cc2c1OCCN(c1nc(C(=O)NCCN(C)C)nc(C)c1C(C)C)C2` [Compound 43, 4-[7-(6-chloro-5-[(methylsulfonyl)amino]pyridin-3-yl}-9-methyl-2,3-dihydro-1,4-benzoxazepin-4(5H)-yl]-N-[2-(dimethylamino)ethyl]-6-methyl-5-(1-methylethyl)pyrimidine-2-carboxamide], the IC50 was at most 100 nM.

Turning to `Cc1cc(-c2cccc(O)c2)cc2c1OCCN(c1nc(N)nc(C)c1C(C)C)C2` [Compound 70, 3-{4-[2-amino-6-methyl-5-(1-methylethyl)pyrimidin-4-yl]-9-methyl-2,3,4,5-tetrahydro-1,4-benzoxazepin-7-yl}phenol], the IC50 was in the range of 100 to 500 nM.

Take `Cc1cnc(N2CCOc3c(C)cc(-c4cnc5sc(N)nc5c4)cc3C2)nc1N` [Compound 37, 6-[4-(4-amino-5-methylpyrimidin-2-yl)-9-methyl-2,3,4,5-tetrahydro-1,4-benzoxazepin-7-yl][1,3]thiazolo[5,4-b]pyridin-2-amine]: the 50% inhibitory concentration (IC50) lay within 100 to 500 nM.
